# Laboratory results published in patent US20220296590A1, “STEREOISOMERS OF THE COMPOUND 3-(BENZO[D][1,3]DIOXOL-5-YL)-7-(1-HYDROXYPROPAN-2-YL)-1-(1H-INDOL-3-YL)-6,7-DIHYDRO-3H-OXAZOL[3,4-A]PYRAZINE-5,8-DIONE AND USE THEREOF AS AN ANTITUMOR AGENT AND PHOSPHODIESTERASE ENZYME INHIBITOR” (BIOLAB SANUS FARMACEUTICA LTDA, priority 2019, published 2022).
# Tests used:
# [1] = system: MNK45-human gastric cancer; experiment: Antiproliferative effect in tumor cell culture (CYQuant intracellular DNA, 72 hours), MNK45; assay type: cell-based
# Method: (§1) For the execution of the assay, the compounds are diluted in DMSO 100% (v/v) at a concentration of 1000 μM and subsequently diluted in a Sodium Chloride solution 0.9% to obtain the storage solutions of interest for use in the assays. The final concentration of interest will be directly diluted in the cell culture medium. For the assay there are used the following tumor cell lineages: PC3-human prostate cancer cells; LNCAP-human prostate cancer cells; DU145-human prostate cancer; MNK45-human gastric cancer and RT4-human bladder cancer cells. The tumor cell lineages are maintained in culture according to standard procedures established by the Cell Bank of Rio de Janeiro (lineage place of origin). For the assay, the tumor cells are seeded in the concentration of 10.000 cells per well (final volume of the reaction of […]), the plate is incubated for 8 hours, for the cells to adhere to the wall of the wells. After this period, the plate is divided in groups: • (a) test group: […] of the samples were added (test compound) in the concentrations of interest; • (b) positive control group: […] of culture medium were added (100% of cell proliferation); • (c) negative control group: 200 mL of culture medium and […] of the vehicle used were added to dilute the compounds (without cells—zero proliferation); • (d) control group: […] were added of the vehicle used to dilute the compounds. This group is important to evaluate whether the vehicle used interferes in the cell proliferation. OBSERVATION: the treatment with the concentrations of samples (test compounds) and of the controls are carried out in triplicate. Incubate the plate for 72 hours in a CO2 kiln at 37° C. After the incubation period, add […]/well of the solution with DNA marker from the CYQuant Kit and incubate the plate, for 60 minutes, in a CO2 incubator at 37° C. The fluorescence intensity is determined using a fluorescence microplate reader with 485 nm excitation and 530 nm emission detection. The results obtained were normalized relative to the positive control group (100% proliferation). For the compounds there are prepared the storage solutions in the concentrations of: 100 nM, 1 μM, 3 μM, 5 μM, 10 μM and 30 μM (DMSO 10% v/v). While the final concentrations in the test are of: 10 nM, 100 nM, 300 nM, 500 nM, 1000 nM and 3000 nM (in DMSO 1% v/v).
# [2] = system: PC3-human prostate cancer cells; experiment: Antiproliferative effect in tumor cell culture (CYQuant intracellular DNA, 72 hours), PC3; assay type: cell-based; settings: for % Cell Proliferation Inhibition (intracellular DNA) PC-3 (average ± E.P.M.): 72 hours
# Method: as §1
# [3] = system: DU145-human prostate cancer; experiment: Antiproliferative effect in tumor cell culture (CYQuant intracellular DNA, 72 hours), DU145; assay type: cell-based; settings: for % Cell Proliferation Inhibition (intracellular DNA) DU145 (average ± E.P.M.): 72 hours
# Method: as §1
# PDE5A1 enzyme = target: T1, PDE5A1 enzyme (Homo sapiens, UniProt O76074); experiment: In vitro inhibition of human phosphodiesterase enzyme 5 (BPS Bioscience PDE5A1 assay kit, fluorescence polarization); assay type: biochemical
# T1 construct: purchased BPS Bioscience 60350
# Method: The evaluation of the compound is studied using BPS Bioscience enzyme assay kit (catalogue 60350). The PDE5A1 Assay kit is designed for identification of PDE5A1 inhibitors using fluorescence polarization. The assay is based on the binding of a fluorescent nucleotide monophosphate generated by PDE5A1 enzyme to the binding agent.
# In this methodology only two simple steps on a microtiter plate are required for PDE5A1 reactions. First, the fluorescently labeled cGMP is incubated with PDE5A1 for 1 hour. Second, the binding agent is added to the reaction mixture to produce a change in fluorescent polarization that can then be measured using a fluorescence reader equipped for the measurement of fluorescence polarization.
# For the assay the storage reagent FAM-Cyclic-3′, 5′-GMP (20 μM) is diluted with PDE assay buffer to achieve the solution with a […] concentration; the PDE5A1 enzyme is thawed and diluted with the PDE buffer obtaining a PDE5A1 solution at 10 pg/mL.
# The assay compounds are diluted with DMSO 100% (v/v) at a concentration of 1000 μM and subsequently diluted in a Sodium chloride 0.9% solution to obtain a curve of concentrations of interest for the assay. The compounds are diluted in concentrations of: 10 nM, 30 nM, 50 nM, 100 nM, 300 nM, 500 nM, 1 μM, 3 μM, 5 μM (DMSO 10% v/v).
# The study is comprised of groups: (i) substrate control; (ii) positive control (KIT); (iii) samples in several concentrations; (iv) tadalafil (comparative control). Each parameter (group) is triple labeled.
# For the 4 groups there is added, to each microplate well, […] of the FAM-Cyclic-3′ reagent, 5′-GMP (200 μM).
# To the substrate control group there is added, to each well, […] of vehicle (DMSO 10% v/v) and […] PDE Buffer.
# To the positive control group there is added, to each well, […] of vehicle (DMSO 10% v/v).
# To the tadalafil group: there is added […] of the solution in the concentrations of interest.
# To the test group there is added […] of the sample solution (test compound)
# OBSERVATION: the parameters tested are in triplicate.
# To begin the reaction, add […] of the PDE5A1 enzyme (diluted as described above) to the microplate wells designated as Positive Control and Samples (test and tadalafil), and incubate the microplate, for 1 hour, at a temperature of 25° C.
# After the incubation period, the reaction is interrupted by the addition, in all the wells, of […] of the binding agent solution and the microplate is incubated for 30 minutes, under light stirring, at room temperature. The reading of the microplate is carried out in Polarized Fluorescence (475-495 nm—excitation and 518-538 nm—emission detection) 500 nanoseconds integration time.
# [4] = system: LNCAP-human prostate cancer cells; experiment: Antiproliferative effect in tumor cell culture (CYQuant intracellular DNA, 72 hours), LNCAP; assay type: cell-based; settings: for % Cell Proliferation Inhibition (intracellular DNA) LNCAP (average ± E.P.M.): 72 hours
# Method: as §1
# [5] = system: RT4-human bladder cancer cells; experiment: Antiproliferative effect in tumor cell culture (CYQuant intracellular DNA, 72 hours), RT4; assay type: cell-based; settings: for % Cell Proliferation Inhibition (intracellular DNA) RT4 (average ± E.P.M.): 72 hours
# Method: as §1
smiles,measurement,setting,value
"CC(CO)N1CC(=O)N2C(=C(c3c[nH]c4ccccc34)OC2c2ccc3c(c2)OCO3)C1=O (mixture of isomers) [BL-380, (R)-3-(benzo[d][1,3]dioxol-5-yl) -7-((R)-1-hydroxypropan-2-yl)-1-(1H-indole-3-yl)-6,7-dihydro-3H-oxazole[3,4-a]pyrazine-5,8-dione with (S)-3-(benzo[d][1,3]dioxol-5-yl)-7-((R)-1-hydroxypropan-2-yl)-1-(1H-indole-3-yl)-6,7-dihydro-3H-oxazole[3,4-a]pyrazine-5,8-dione]",% Cell Proliferation Inhibition (intracellular DNA) MNK45 (average ± E.P.M.),"[1]; 100 nM, 0.1 µM",7 ± 2%
same,% Cell Proliferation Inhibition (intracellular DNA) MNK45 (average ± E.P.M.),"[1]; 300 nM, 0.3 µM",0%
same,% Cell Proliferation Inhibition (intracellular DNA) MNK45 (average ± E.P.M.),"[1]; 500 nM, 0.5 µM",0%
same,% Cell Proliferation Inhibition (intracellular DNA) MNK45 (average ± E.P.M.),"[1]; 1000 nM, 1 µM",0%
same,% Cell Proliferation Inhibition (intracellular DNA) MNK45 (average ± E.P.M.),"[1]; 3000 nM, 3 µM",16 ± 5%
same,% Cell Proliferation Inhibition (intracellular DNA) PC-3 (average ± E.P.M.),"[2]; 10 nM, 0.01 µM",39 ± 6%
same,% Cell Proliferation Inhibition (intracellular DNA) PC-3 (average ± E.P.M.),"[2]; 100 nM, 0.1 µM",25 ± 5%
same,% Cell Proliferation Inhibition (intracellular DNA) PC-3 (average ± E.P.M.),"[2]; 300 nM, 0.3 µM",28 ± 2%
same,% Cell Proliferation Inhibition (intracellular DNA) PC-3 (average ± E.P.M.),"[2]; 500 nM, 0.5 µM",48 ± 6%
same,% Cell Proliferation Inhibition (intracellular DNA) PC-3 (average ± E.P.M.),"[2]; 1000 nM, 1 µM",40 ± 3%
same,% Cell Proliferation Inhibition (intracellular DNA) PC-3 (average ± E.P.M.),[2]; 3000 nM,54 ± 4%
same,"antiproliferative effect, result in words",[2]; PC3 prostate cancer tumor lineage,antiproliferative effect
same,% Cell Proliferation Inhibition (intracellular DNA) DU145 (average ± E.P.M.),"[3]; 100 nM, 0.1 µM",12 ± 4%
same,% Cell Proliferation Inhibition (intracellular DNA) DU145 (average ± E.P.M.),"[3]; 300 nM, 0.3 µM",10 ± 5%
same,% Cell Proliferation Inhibition (intracellular DNA) DU145 (average ± E.P.M.),"[3]; 500 nM, 0.5 µM",12 ± 2%
same,% Cell Proliferation Inhibition (intracellular DNA) DU145 (average ± E.P.M.),"[3]; 1000 nM, 1 µM",10 ± 3%
same,% Cell Proliferation Inhibition (intracellular DNA) DU145 (average ± E.P.M.),"[3]; 3000 nM, 3 µM",31 ± 5%
same,"antiproliferative effect, result in words",[3]; DU145 prostate cancer tumor lineage,antiproliferative effect
same,% of Inhibition (PDE5A1),PDE5A1 enzyme; 10 nM,0%
same,concentration as from which PDE5 inhibition was observed,PDE5A1 enzyme; 10 nM to 5000 nM tested,≥ 300 nM
same,% of Inhibition (PDE5A1),PDE5A1 enzyme; 30 nM,0%
same,% of Inhibition (PDE5A1),PDE5A1 enzyme; 50 nM,0%
same,% of Inhibition (PDE5A1),PDE5A1 enzyme; 100 nM,0%
same,% of Inhibition (PDE5A1),PDE5A1 enzyme; 300 nM,15 ± 3%
same,% of Inhibition (PDE5A1),"PDE5A1 enzyme; 500 nM, 0.5 µM",25 ± 3%
same,% of Inhibition (PDE5A1),"PDE5A1 enzyme; 1000 nM, 1 µM",55 ± 4%
same,% of Inhibition (PDE5A1),"PDE5A1 enzyme; 3000 nM, 3 µM",65 ± 2%
same,% of Inhibition (PDE5A1),PDE5A1 enzyme; 5000 nM,78 ± 1%
same,"PDE5 inhibition, result in words",PDE5A1 enzyme; over the concentrations tested,capable of inhibiting the PDE5 in a dose-dependent manner
same,% Cell Proliferation Inhibition (intracellular DNA) LNCAP (average ± E.P.M.),"[4]; 10 nM, 0.01 µM",26 ± 10%
same,% Cell Proliferation Inhibition (intracellular DNA) LNCAP (average ± E.P.M.),"[4]; 100 nM, 0.1 µM",12 ± 3%
same,% Cell Proliferation Inhibition (intracellular DNA) LNCAP (average ± E.P.M.),"[4]; 300 nM, 0.3 µM",29 ± 6%
same,% Cell Proliferation Inhibition (intracellular DNA) LNCAP (average ± E.P.M.),"[4]; 500 nM, 0.5 µM",27 ± 2%
same,% Cell Proliferation Inhibition (intracellular DNA) LNCAP (average ± E.P.M.),"[4]; 1000 nM, 1 µM",37 ± 2%
same,% Cell Proliferation Inhibition (intracellular DNA) LNCAP (average ± E.P.M.),[4]; 3000 nM,48 ± 6%
same,"antiproliferative effect, result in words",[4]; LNCAP prostate cancer tumor lineage,antiproliferative effect
same,% Cell Proliferation Inhibition (intracellular DNA) RT4 (average ± E.P.M.),"[5]; 100 nM, 0.1 µM",8 ± 6%
same,% Cell Proliferation Inhibition (intracellular DNA) RT4 (average ± E.P.M.),"[5]; 300 nM, 0.3 µM",5 ± 5%
same,% Cell Proliferation Inhibition (intracellular DNA) RT4 (average ± E.P.M.),"[5]; 500 nM, 0.5 µM",3 ± 5%
same,% Cell Proliferation Inhibition (intracellular DNA) RT4 (average ± E.P.M.),"[5]; 1000 nM, 1 µM",3 ± 1%
same,% Cell Proliferation Inhibition (intracellular DNA) RT4 (average ± E.P.M.),"[5]; 3000 nM, 3 µM",58 ± 4%
same,"antiproliferative effect, result in words",[5]; RT4 bladder cancer tumor lineage,antiproliferative effect
